Laboratory results from publication PMC3895407 (Journal of medicinal chemistry, 2013).
Marks after values point to notes of the source that are not given here.

How the values were obtained:
in vitro [1] = test: in vitro
in vitro [2] = conditions: PAMPA, pH 7.4
[3] = tested on: western equine encephalitis virus (WEEV); conditions: cited from earlier work
Fort Morgan virus (FMV) [4] = conditions: 25 µM
WEEV replicon = format: cell-based, western equine encephalitis virus
Fort Morgan virus (FMV) [5] = format: cell-based
[6] = Table 3; BBB lipid mixture, pH 7.4
[7] = relative to lead compound 3
[8] = tested on: western equine encephalitis virus (WEEV); conditions: 25 µM
[9] = tested on: cell viability (cellular reduction of MTT)

| Molecule | CC50 (in vitro [1]) | Papp (in vitro [2]) | other results |
| --- | --- | --- | --- |
| O=C(c1cc2ccccc2n1Cc1ccc(Cl)cc1)N1CCC(C(=O)N2CCOCC2)CC1 [27x, (1-(4-Chlorobenzyl)-1H-indol-2-yl)(4-(morpholine-4-carbonyl)piperidin-1-yl)methanone] | > 100 µM | – | – |
| COCCn1c(C(=O)N2CCC(C(=O)N(C)Cc3ccccc3)CC2)cc2ccccc21 [28f, N-Benzyl-1-(1-(2-methoxyethyl)-1H-indole-2-carbonyl)-N-methylpiperidine-4-carboxamide] | > 50 µM | 40.7 ×10⁻⁶ cm/s | – |
| C[C@@H](NC(=O)C1CCN(C(=O)c2cc3ccccc3n2Cc2ccc(Cl)cc2)CC1)c1ccncc1 [27b, (R)-1-(1-(4-Chlorobenzyl)-1H-indole-2-carbonyl)-N-(1-(pyridin-4-yl)ethyl)piperidine-4-carboxamide] | – | 95.5 ×10⁻⁶ cm/s | – |
| CN(C)C(=O)C1CCN(C(=O)c2cc3ccccc3n2Cc2ccc(Cl)cc2)CC1 [27v, 1-(1-(4-Chlorobenzyl)-1H-indole-2-carbonyl)-N,N-dimethylpiperidine-4-carboxamide] | > 100 µM | 64.6 ×10⁻⁶ cm/s | – |
| C[C@@H](NC(=O)C1CCN(C(=O)c2cc3ccccc3n2Cc2ccc(Cl)cc2)CC1)c1ccccc1 [compound 3] | > 100 µM | 0.302 ×10⁻⁶ cm/s | WEEV Titer [3]: 8.8 ± 1.0* x10^6 pfu/mL; FMV Viability (% uninfected control) (Fort Morgan virus (FMV) [4]): 47.4 ± 8.0 % uninfected control |
| O=C(NCCc1ccncc1)C1CCN(C(=O)c2cc(F)cn2Cc2ccc(Cl)cc2)CC1 [29k, 1-(1-(4-Chlorobenzyl)-4-fluoro-1H-pyrrole-2-carbonyl)-N-(2-(pyridin-4-yl)ethyl)piperidine-4-carboxamide] | – | 12.6 ×10⁻⁶ cm/s | – |
| Cn1c(C(=O)N2CCC(C(=O)NCCc3ccncc3)CC2)cc2ccccc21 [29e, 1-(1-Methyl-1H-indole-2-carbonyl)-N-(2-(pyridin-4-yl)ethyl)piperidine-4-carboxamide] | > 50 µM | – | – |
| CN(CCc1ccncc1)C(=O)C1CCN(C(=O)c2cc3ccccc3n2Cc2ccc(Cl)cc2)CC1 [27m, 1-(1-(4-Chlorobenzyl)-1H-indole-2-carbonyl)-N-methyl-N-(2-(pyridin-4-yl)ethyl)piperidine-4-carboxamide] | – | 61.7 ×10⁻⁶ cm/s | Fold diminished potency in WEEV replicon assay (WEEV replicon): 3 fold |
| O=C(NCCn1ccnc1)C1CCN(C(=O)c2cc3ccccc3n2Cc2ccc(Cl)cc2)CC1 [27o, N-(2-(1H-Imidazol-1-yl)ethyl)-1-(1-(4-chlorobenzyl)-1H-indole-2-carbonyl)piperidine-4-carboxamide] | – | 1.74 ×10⁻⁶ cm/s | – |
| CC(NC(=O)C1CCN(C(=O)c2cc3ccccc3n2Cc2ccc(Cl)cc2)CC1)c1ccncc1 (stereo not drawn) [27a, 1-(1-(4-Chlorobenzyl)-1H-indole-2-carbonyl)-N-(1-(pyridin-4-yl)ethyl)piperidine-4-carboxamide] | – | 102 ×10⁻⁶ cm/s | FMV Viability (% uninfected control) (Fort Morgan virus (FMV) [4]): 68.2 ± 2.4 % uninfected control; Fold improvement of activity in WEEV replicon assay (WEEV replicon): about 3 fold; Reduction of viral titers compared with 3 (Fort Morgan virus (FMV) [5]): approximately ten-fold more than 3 |
| CN(Cc1ccccc1)C(=O)C1CCN(C(=O)c2cc3ccccc3n2Cc2ccc([N+](=O)[O-])cc2)CC1 [28b, N-Benzyl-N-methyl-1-(1-(4-nitrobenzyl)-1H-indole-2-carbonyl)piperidine-4-carboxamide] | > 100 µM | – | – |
| O=C(NCCc1ccncc1)C1CCN(C(=O)c2cc3ccccc3n2Cc2ccc(Cl)cc2)CC1 [27g, 1-(1-(4-Chlorobenzyl)-1H-indole-2-carbonyl)-N-(2-(pyridin-4-yl)ethyl)piperidine-4-carboxamide] | – | 66.1 ×10⁻⁶ cm/s | FMV Viability (% uninfected control) (Fort Morgan virus (FMV) [4]): 71.9 ± 1.9 % uninfected control; BBB-PAMPA (log Peff) [6]: -4.18 ± 0.06 cm/s; Fold increase in potency in WEEV replicon assay (WEEV replicon): 10 fold; Reduction of viral titers compared with 3 (Fort Morgan virus (FMV) [5]): approximately ten-fold more than 3 |
| Cn1ccc(CNC(=O)C2CCN(C(=O)c3cc4ccccc4n3Cc3ccc(Cl)cc3)CC2)n1 [27e, 1-(1-(4-Chlorobenzyl)-1H-indole-2-carbonyl)-N-((1-methyl-1H-pyrazol-3-yl)methyl)piperidine-4-carboxamide] | > 100 µM | – | – |
| O=C(NCCc1ccncc1)C1CCN(C(=O)c2cccn2Cc2ccc(Cl)cc2)CC1 [29a, 1-(1-(4-Chlorobenzyl)-1H-pyrrole-2-carbonyl)-N-(2-(pyridin-4-yl)ethyl)piperidine-4-carboxamide] | > 100 µM | 9.77 ×10⁻⁶ cm/s | FMV Viability (% uninfected control) (Fort Morgan virus (FMV) [4]): 63.0 ± 5.9 % uninfected control |
| O=C(NCCc1ccncc1)C1CCN(C(=O)c2nc3ccccc3n2Cc2ccc(Cl)cc2)CC1 [29c, 1-(1-(4-Chlorobenzyl)-1H-benzo[d]imidazole-2-carbonyl)-N-(2-(pyridin-4-yl)ethyl)piperidine-4-carboxamide] | – | 31.6 ×10⁻⁶ cm/s | Fold increase in half-life in mouse liver microsomes [7]: 20-35 fold |
| O=C(NCCCc1ccncc1)C1CCN(C(=O)c2cc3ccccc3n2Cc2ccc(Cl)cc2)CC1 [27j, 1-(1-(4-Chlorobenzyl)-1H-indole-2-carbonyl)-N-(3-(pyridin-4-yl)propyl)piperidine-4-carboxamide] | – | 77.6 ×10⁻⁶ cm/s | Fold decrease in potency in WEEV replicon assay (WEEV replicon): 5 fold |

| Molecule | CC50 (in vitro [1]) | Papp (in vitro [2]) | other results |
| --- | --- | --- | --- |
| CN(Cc1ccccc1)C(=O)C1CCN(C(=O)c2cc3ccccc3n2Cc2ccc(C#N)cc2)CC1 [28c, N-Benzyl-1-(1-(4-cyanobenzyl)-1H-indole-2-carbonyl)-N-methylpiperidine-4-carboxamide] | > 100 µM | 53.7 ×10⁻⁶ cm/s | – |
| O=C(NCCc1ccncc1)C1CCN(C(=O)c2cc3ccncc3n2Cc2ccc(Cl)cc2)CC1 [29j, 1-(1-(4-Chlorobenzyl)-1H-pyrrolo[2,3-c]pyridine-2-carbonyl)-N-(2-(pyridin-4-yl)ethyl)piperidine-4-carboxamide] | – | 3.02 ×10⁻⁶ cm/s | – |
| COc1cccc(CCNC(=O)C2CCN(C(=O)c3cc4ccccc4n3Cc3ccc(Cl)cc3)CC2)c1 [27p, 1-(1-(4-Chlorobenzyl)-1H-indole-2-carbonyl)-N-(3-methoxyphenethyl)piperidine-4-carboxamide] | > 100 µM | – | – |
| CC(=O)n1c(C(=O)N2CCC(C(=O)N(C)Cc3ccccc3)CC2)cc2ccccc21 [28e, 1-(1-Acetyl-1H-indole-2-carbonyl)-N-benzyl-N-methylpiperidine-4-carboxamide] | > 50 µM | 9.77 ×10⁻⁶ cm/s | – |
| NC(=O)c1ncn([C@@H]2O[C@H](CO)[C@@H](O)[C@H]2O)n1 [Ribavirin] | – | – | WEEV Viability (% uninfected control) [8]: 35.3 ± 1.0 % uninfected control |
| O=C(NCCc1ccncc1)C1CCN(C(=O)c2cc3ccccc3n2Cc2ccccc2)CC1 [29f, 1-(1-Benzyl-1H-indole-2-carbonyl)-N-(2-(pyridin-4-yl)ethyl)piperidine-4-carboxamide] | – | – | Fold increase in half-life in mouse liver microsomes [7]: 20-35 fold |
| O=C(NCCc1ccncc1)C1CCN(C(=O)c2cc3cc(F)ccc3n2Cc2ccc(Cl)cc2)CC1 [29i, 1-(1-(4-Chlorobenzyl)-5-fluoro-1H-indole-2-carbonyl)-N-(2-(pyridin-4-yl)ethyl)piperidine-4-carboxamide] | – | 77.6 ×10⁻⁶ cm/s | – |
| Cn1cnc(CNC(=O)C2CCN(C(=O)c3cc4ccccc4n3Cc3ccc(Cl)cc3)CC2)c1 [27f, 1-(1-(4-Chlorobenzyl)-1H-indole-2-carbonyl)-N-((1-methyl-1H-imidazol-4-yl)methyl)piperidine-4-carboxamide] | > 50 µM | – | – |
| O=C(NCCc1ccncc1)C1CCN(C(=O)NCCc2ccc(Cl)cc2)CC1 [29d, N1-(4-Chlorophenethyl)-N4-(2-(pyridin-4-yl)ethyl)piperidine-1,4-dicarboxamide] | > 100 µM | 14.1 ×10⁻⁶ cm/s | – |
| O=C(NCc1ccncc1)C1CCN(C(=O)c2cc3ccccc3n2Cc2ccc(Cl)cc2)CC1 [compound 4] | > 100 µM | 69.2 ×10⁻⁶ cm/s | – |
| O=C(NCCc1ccncc1)C1CCN(C(=O)c2nccn2Cc2ccc(Cl)cc2)CC1 [29b, 1-(1-(4-Chlorobenzyl)-1H-imidazole-2-carbonyl)-N-(2-(pyridin-4-yl)ethyl)piperidine-4-carboxamide] | > 50 µM | 8.71 ×10⁻⁶ cm/s | – |
| CN1CCC(CNC(=O)C2CCN(C(=O)c3cc4ccccc4n3Cc3ccc(Cl)cc3)CC2)CC1 [27d, 1-(1-(4-Chlorobenzyl)-1H-indole-2-carbonyl)-N-((1-methylpiperidin-4-yl)methyl)piperidine-4-carboxamide] | > 50 µM | – | – |
| 1-(1-(4-Chlorobenzyl)-1H-indole-2-carbonyl)-N-(2-methyl-2-(pyridin-4-yl)propyl)piperidine-4-carboxamide [27l] | – | – | IC50 (WEEV replicon; read-out: IC50 (inhibition of luciferase expression in WEEV replicon assay)): 19.3 ± 21 µM; CC50 [9]: 43.6 µM |
| O=C(NCCc1ccncc1)C1CCN(C(=O)c2cc3ccc(F)cc3n2Cc2ccc(Cl)cc2)CC1 [29h, 1-(1-(4-Chlorobenzyl)-6-fluoro-1H-indole-2-carbonyl)-N-(2-(pyridin-4-yl)ethyl)piperidine-4-carboxamide] | – | – | Reduction of viral titers compared with 3 (Fort Morgan virus (FMV) [5]): approximately ten-fold more than 3 |
| O=C(NCc1cccnc1)C1CCN(C(=O)c2cc3ccccc3n2Cc2ccc(Cl)cc2)CC1 [compound 5] | – | – | Fold loss in activity in WEEV replicon assay (WEEV replicon): 2 fold |
